Experimental data taken from EP4574817A1 (LoQus23 Therapeutics Limited, priority 2023, dated 2025).

Molecular target: T1, MutSβ (Homo sapiens, UniProt P20585+P43246)
T1 construct: purchased AMRI
Test: MutSβ ADP Glo Assay
Format: biochemical
Conditions: 20nM MutSβ, 30nM CAG DNA, 25 µM ATP, 2 hours at room temperature
Experimental: Biological Example A - MutSβ Assay
• MutSβ (supplied by AMRI) stored at -70°C • ADP Glo Kinase Assay Kit (Promega: V9102) stored at -20°C • ATP (supplied within the ADP Glo Kit) stored at -20°C • 1M KCI (Sigma Aldrich: P9333) stored at 2-8°C • 1 M HEPES pH 7.5 (Gibco: M15630-080) stored at 2-8°C • 1M MgCl2 (Sigma Aldrich: M1028-100mL) stored at 2-8°C • Tween-20 (Sigma Aldrich: P1379) (10% solution) stored at 2-8°C • 500mM DTT (Sigma Aldrich: 10197777001) stored at -20°C • CAG loop DNA for MutSβ (made in house) stored at -20°C • MilliQ water stored at room temperature
• 1. Prepare the buffer fresh each day • 2. Take the enzyme from the freezer, thaw in room temperature water and centrifuge at 13,000 rpm for 10 minutes at 2-8C, then make up enzyme and ATP stocks • 3. Quality Control the multidrop head to a %CV of <2% • 4. Add 3µL of 33.34nM MutSβ and 50.01nM CAG looped DNA solution […] to each well in columns 1 and 3-23 of the plate • 5. Pre-incubate the MutSβ and buffer mix for 10 minutes with the compounds • 6. Wash the multidrop head through with MilliQ water (for at least 30 seconds) • 7. Add 3µL of MutSβ Assay buffer (without enzyme) to columns 2 and 24 for the vehicle controls • 8. Wash the multidrop head through with MilliQ water (for at least 30 seconds) • 9. Add 2µL of 62.5µM ATP to each well of the whole plate, then wash with MilliQ water (for a minimum of 30 seconds) • 10. Centrifuge plate for 1 minute at 1000 rpm • 11. Incubate for 2 hours at room temperature • 12. Add 5µL of ADP Glo reagent to each well of the whole plate and wash the multidrop head with MilliQ water (for a minimum of 30 seconds) • 13. Incubate for 40 minutes at room temperature (minimum requirement) • 14. Add 10µL of Kinase Detection Reagent to each well of the whole plate • 15. Wash the multidrop head with MilliQ water more than 1 minute and then dry • 16. Remove the head and put the cover back on for overnight storage • 17. Incubate for 30 minutes at room temperature (minimum requirement) • 18. Read on a microplate reader

T1 sequence (P43246 whole entry): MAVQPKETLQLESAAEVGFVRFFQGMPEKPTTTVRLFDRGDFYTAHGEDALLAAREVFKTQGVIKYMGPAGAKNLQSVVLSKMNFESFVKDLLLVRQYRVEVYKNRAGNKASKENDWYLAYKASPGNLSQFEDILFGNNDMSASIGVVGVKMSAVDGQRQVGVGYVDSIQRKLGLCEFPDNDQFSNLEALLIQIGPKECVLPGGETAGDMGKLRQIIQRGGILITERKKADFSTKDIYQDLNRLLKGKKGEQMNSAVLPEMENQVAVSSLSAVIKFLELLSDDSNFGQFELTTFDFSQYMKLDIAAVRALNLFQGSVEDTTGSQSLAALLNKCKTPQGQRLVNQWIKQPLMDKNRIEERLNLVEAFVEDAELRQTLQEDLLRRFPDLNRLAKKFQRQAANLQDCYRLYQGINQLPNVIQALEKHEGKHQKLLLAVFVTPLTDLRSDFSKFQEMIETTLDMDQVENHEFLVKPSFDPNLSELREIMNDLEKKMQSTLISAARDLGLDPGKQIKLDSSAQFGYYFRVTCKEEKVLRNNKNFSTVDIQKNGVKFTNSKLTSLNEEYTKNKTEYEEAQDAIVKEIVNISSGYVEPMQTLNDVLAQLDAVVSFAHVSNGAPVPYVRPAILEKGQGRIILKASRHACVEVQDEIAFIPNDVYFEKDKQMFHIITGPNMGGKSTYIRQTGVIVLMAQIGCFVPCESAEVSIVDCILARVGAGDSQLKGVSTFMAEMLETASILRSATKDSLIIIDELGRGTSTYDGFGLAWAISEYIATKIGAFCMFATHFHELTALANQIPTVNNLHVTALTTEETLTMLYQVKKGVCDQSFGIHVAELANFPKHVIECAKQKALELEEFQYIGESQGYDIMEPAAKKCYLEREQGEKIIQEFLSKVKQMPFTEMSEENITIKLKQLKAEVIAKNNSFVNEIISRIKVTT
T1 sequence (P20585 whole entry): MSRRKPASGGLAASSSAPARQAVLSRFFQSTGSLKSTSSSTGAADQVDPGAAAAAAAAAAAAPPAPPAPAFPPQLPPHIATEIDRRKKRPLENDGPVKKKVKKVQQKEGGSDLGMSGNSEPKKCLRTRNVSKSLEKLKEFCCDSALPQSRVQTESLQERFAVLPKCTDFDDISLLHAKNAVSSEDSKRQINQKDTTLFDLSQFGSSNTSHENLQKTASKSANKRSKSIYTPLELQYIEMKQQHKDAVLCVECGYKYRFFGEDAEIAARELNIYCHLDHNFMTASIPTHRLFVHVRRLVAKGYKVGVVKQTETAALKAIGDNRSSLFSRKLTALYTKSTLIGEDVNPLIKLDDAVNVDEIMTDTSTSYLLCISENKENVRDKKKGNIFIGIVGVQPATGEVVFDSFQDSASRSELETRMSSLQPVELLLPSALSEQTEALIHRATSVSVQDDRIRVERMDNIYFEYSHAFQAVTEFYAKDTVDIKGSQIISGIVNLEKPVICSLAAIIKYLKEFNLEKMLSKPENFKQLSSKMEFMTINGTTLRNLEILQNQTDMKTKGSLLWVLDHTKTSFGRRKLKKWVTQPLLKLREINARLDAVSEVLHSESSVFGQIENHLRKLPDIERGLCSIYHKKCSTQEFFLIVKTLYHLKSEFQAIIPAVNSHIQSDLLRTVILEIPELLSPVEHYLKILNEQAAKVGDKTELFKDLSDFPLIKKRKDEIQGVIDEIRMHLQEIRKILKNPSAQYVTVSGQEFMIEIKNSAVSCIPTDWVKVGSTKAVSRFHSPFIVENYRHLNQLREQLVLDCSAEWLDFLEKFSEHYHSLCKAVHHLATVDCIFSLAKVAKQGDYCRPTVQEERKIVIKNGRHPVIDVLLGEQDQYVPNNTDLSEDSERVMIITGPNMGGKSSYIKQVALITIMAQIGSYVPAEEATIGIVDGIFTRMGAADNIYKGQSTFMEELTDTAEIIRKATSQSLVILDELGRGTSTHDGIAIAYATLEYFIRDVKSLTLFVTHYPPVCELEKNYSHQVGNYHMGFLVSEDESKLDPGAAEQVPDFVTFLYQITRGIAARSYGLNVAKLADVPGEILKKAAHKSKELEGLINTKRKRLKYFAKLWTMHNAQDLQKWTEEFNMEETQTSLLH

| IC50 | Structure (SMILES) |
| --- | --- |
| 10 to 50 µM | CNS(=O)(=O)OCC(=O)Nc1nc(CN2CCOCC2)c(Cc2cccc(Cl)c2)s1 [Example 58, 2-((5-(3-chlorobenzyl)-4-(morpholinomethyl)thiazol-2-yl)amino)-2-oxoethyl methylsulfamate] |
| ≤ 0.5 µM | CNS(=O)(=O)OCC(=O)N(C)c1nc(C)c(Cc2ccc(Cl)c(Cl)c2)s1 [Example 59, 2-((5-(3,4-dichlorobenzyl)-4-methylthiazol-2-yl)(methyl)amino)-2-oxoethyl methylsulfamate] |
| 1 to 10 µM | CNC(=O)OCc1nc(NC(=O)COS(=O)(=O)NC)sc1Cc1cccc(Cl)c1 [Example 60, 2-((5-(3-chlorobenzyl)-4-(((methylcarbamoyl)oxy)methyl)thiazol-2-yl)amino)-2-oxoethyl methylsulfamate] |
| 0.5 to 1 µM | CNS(=O)(=O)OCC(=O)Nc1nc(C)c(Oc2cccc(Cl)c2)s1 [Example 61, 2-((5-(3-chlorophenoxy)-4-methylthiazol-2-yl)amino)-2-oxoethyl methylsulfamate] |
| ≤ 0.5 µM | CNS(=O)(=O)OCC(=O)Nc1nc2c(s1)C(c1cccc(Cl)c1)CCC2 (stereo not shown) [Example 62, 2-((7-(3-chlorophenyl)-4,5,6,7-tetrahydrobenzo[d]thiazol-2-yl)amino)-2-oxoethyl methylsulfamate] |

More lines, now with the values behind:

| Structure (SMILES) | IC50 |
| --- | --- |
| CNS(=O)(=O)OCC(=O)Nc1nc(COC2CCN(C)CC2)c(Cc2cccc(Cl)c2)s1 [Example 50, 2-((5-(3-chlorobenzyl)-4-(((1-methylpiperidin-4-yl)oxy)methyl)thiazol-2-yl)amino)-2-oxoethyl methylsulfamate] | 10 to 50 µM |
| CNS(=O)(=O)OCC(=O)Nc1nc(CO)c(Cc2ccc(C)cc2)s1 [Example 51, 2-((4-(hydroxymethyl)-5-(4-methylbenzyl)thiazol-2-yl)amino)-2-oxoethyl methylsulfamate] | 10 to 50 µM |
| CNS(=O)(=O)OCC(=O)Nc1nc(C)c(C(C)(C)c2cccc(Cl)c2)s1 [Example 52, 2-((5-(2-(3-chlorophenyl)propan-2-yl)-4-methylthiazol-2-yl)amino)-2-oxoethyl methylsulfamate] | 10 to 50 µM |
| CNS(=O)(=O)OCC(=O)Nc1nc(C)c(Cc2cccc(Cl)c2F)s1 [Example 53, 2-((5-(3-chloro-2-fluorobenzyl)-4-methylthiazol-2-yl)amino)-2-oxoethyl methylsulfamate] | 1 to 10 µM |
| CNS(=O)(=O)OCC(=O)Nc1nc(C)c(Cc2cc(F)cc(Cl)c2)s1 [Example 54, 2-((5-(3-chloro-5-fluorobenzyl)-4-methylthiazol-2-yl)amino)-2-oxoethyl methylsulfamate] | 1 to 10 µM |
| CNS(=O)(=O)OCC(=O)Nc1nc(C)c(Cc2cc(Cl)ccc2F)s1 [Example 55, 2-((5-(5-chloro-2-fluorobenzyl)-4-methylthiazol-2-yl)amino)-2-oxoethyl methylsulfamate] | 1 to 10 µM |
| CNS(=O)(=O)OCC(=O)Nc1nc(C=O)c(Cc2cccc(Cl)c2)s1 [Example 56, 2-((5-(3-chlorobenzyl)-4-formylthiazol-2-yl)amino)-2-oxoethyl methylsulfamate] | 1 to 10 µM |
| CCN(C(=O)COS(=O)(=O)NC)c1nc(C)c(Cc2cccc(Cl)c2)s1 [Example 57, 2-((5-(3-chlorobenzyl)-4-methylthiazol-2-yl)(ethyl)amino)-2-oxoethyl methylsulfamate] | 0.5 to 1 µM |
